Results on two compounds are retold here after patent US20240002437A1, “COMPOSITIONS AND METHODS OF TREATING INFLAMMATORY LUNG DISEASES” (priority 2020, published 2024).

In assay [1] the test system is mitochondrial redistribution of eNOS. The experiment in a line: Immunofluorescent microscopy of eNOS mitochondrial redistribution in PAEC. The assay is classed as cell-based, ovine. The method, then: (§1) Primary cultures of ovine pulmonary arterial endothelial cells (PAEC) were isolated as described previously (L. K. Kelly, Am J Physiol Lung Cell Mol Physiol, 286(5), L984-91 (2004)). Briefly, cells were maintained in Dulbecco's modified Eagle medium (DMEM) supplemented with 10% fetal calf serum (Hyclone, Logan, UT), antibiotics/antimycotic (500 IU Penicillin, 500 μg/ml Streptomycin, 1.25 μg/ml Amphotericin B; MediaTech, Herndon, VA) at 37° C. in a humidified atmosphere with 5% CO2 and 95% air. Cells were used for experiments between passages 9-14, seeded at ˜50% confluence, and utilized when fully confluent.
PAEC were grown on cover glass for three days after reaching 100% confluence, and fixed with 4% paraformaldehyde (Thermo Fisher Scientific) for 30 min, permeabilized with 100% cold methanol at −20° C. for 5 min Cell then blocked with 1% BSA for 1 hour, and later incubated with first antibody overnight at 4° C. then secondary antibody at room temperature for 1 hour. Finally, cells were mounted on microscope slides using ProLong Glass Antifade Mountant, (Invitrogen, Carlsbad, CA, Cat #P36980). […] The images were analyzed with ImagePro Plus 7.0 (W. Casavan, Microscopy Today, 11(6), 48-50 (2003)) or ImageJ software to evaluate the colocalization of fluorescent.

The subject of assay [2] is eNOS phosphorylation at T495. The assay is described as follows: Western blot of pT495-eNOS in PAEC. The assay is classed as cell-based, ovine. As to the method: as §1
Protein extracts were prepared using lysis buffer (50 mM Tris-HCl, pH 7.6, 0.5% Triton X-100, 20% glycerol) containing HALT™ protease inhibitor cocktail (Pierce Laboratories, Rockford, IL). The extracts were then subjected to centrifugation (15,000 g for 15 min at 4° C.). Supernatant fractions were assayed for protein concentration using the Bradford reagent (Bio-Rad, Richmond, CA) then used for Western blot analyses. Protein extracts (25-50 μg) were separated on Long-Life 4-20% Tris-SDS-Hepes gels and electrophoretically transferred to IMMUNO-BLOT™ PVDF membrane (Bio-Rad Laboratories, Hercules, CA) Immunoblotting was then carried out using the appropriate antibodies in Tris-base buffered saline with 0.1% Tween 20 and 5% nonfat milk. After washing, the membranes were probed with horseradish peroxidase-conjugated goat antiserum to rabbit or mouse. Reactive bands were visualized using chemiluminescence (Super Signal West Femto; Pierce, Rockford, IL) on a LI-COR Odyssey image station (Lincoln, NE). Bands were quantified using LI-COR Image Station software. Loading was normalized by reprobing the membranes with an antibody specific to β-actin.
On the technique in general: In western blotting, separated proteins are transferred to a membrane and probed.

Assay [3] has as its system PAEC monolayers. The experiment in a line: Trans endothelial resistance (TER) of PAEC monolayers. The assay is classed as cell-based, ovine. As to the method:
as §1
Transendothelial Electrical Resistance (TER) was determined to characterize the integrity of PAEC monolayers using an electrical cell-substrate impedance sensing (ECIS) instrument ECIS Z-Theta (Applied BioPhysics, Troy, NY) as previously described (J. N. Gonzales, Vascul Pharmacol, 62(2), 63-71 (2014); S. Aggarwal, American Journal of Respiratory Cell and Molecular Biology, 50(3), 614-25 (2014)). The cells were plated in 8-well ECIS arrays (Applied BioPhysics) in complete cell culture medium (DMEM supplemented with 10% FBS) and grown to 100% confluency for 2 days. […] After a baseline measurement, the EC were treated with 4αPDD, PMA, the eNOS pT495 decoy peptide, or vehicle at the indicated concentrations, and changes in TER were recorded in real time.

Assay [4] relates to NOS-derived superoxide. The assay is described as follows: NOS-derived superoxide by EPR (eNOS uncoupling) in PAEC. The assay is classed as cell-based, ovine. The method, then:
as §1
Superoxide levels were estimated by electron paramagnetic resonance (EPR) assay using the spin-trap compound 1-hydroxy-3-methoxycarbonyl-2,2,5,5-tetramethylpyrrolidine HCl (CMH, Axxora) as described previously. Superoxide in PAEC was trapped by incubating PAEC with 20 μl of CMH stock solution (20 mg/ml) for 1 h, followed by trypsinization and centrifugation at 500 g. The cell pellet was suspended in 35 μl DPBS and loaded into a capillary tube which was then analyzed with a MiniScope MS200 EPR machine (Magnettech, Berlin, Germany). Pre-incubating cells or tissue with 100 μM ethylisothiourea (ETU, Sigma-Aldrich) for 30 min followed by incubation with CMH measured NOS-derived superoxide. EPR spectra were analyzed using ANALYSIS v.2.02 software (Magnettech). Differences between levels of samples incubated in the presence and absence of ETU were used to determine NOS-dependent superoxide generation.

Assay [5] deals with mouse model of VILI. The experiment in a line: Mouse model of VILI (high tidal volume ventilation). The assay is classed as in vivo. The conditions noted are these: 10 mg/kg intraperitoneally 3 h before ventilation; tidal volume 35 mL/kg, 4 h. As to the method: Male C57BL/6 mice aged between 6 and 8 weeks were purchased from Jackson Laboratories (ME, USA). Mice were maintained at a room temperature of 22±1° C. in air with 40-70% humidity at least one week before experiments. Animals were randomly distributed into 4 groups (n=5 in each group): non-ventilated control mice with normal saline; non-ventilated control mice treated with the eNOS decoy peptide (d-peptide); high tidal volume with normal saline; high tidal volume with eNOS decoy peptide. Three hours before ventilation, saline or the eNOS decoy peptide (10 mg/kg body weight) were injected intraperitoneally. Before mechanical ventilation was initiated, mice were anesthetized using an intraperitoneal injection with a cocktail containing ketamine (100 mg/kg) and xylazine (5 mg/kg). The mice were then placed in a supine position on a heating pad to maintain body temperature. For the ventilation procedure, mice were orotracheally intubated with a 20 g intravenous indwelling catheter and attached to a small animal ventilator (SAR-1000, CWE Inc., USA). The ventilation parameters were set as follows: inspiration/expiration ratio, 33%; respiratory rate, 75 breaths/min; and tidal volume, 35 mL/kg (high tidal volume group). During mechanical ventilation, mice were maintained in deep anesthesia by injecting with ketamine (100 mg/kg) every 45 minutes for the duration of the 4 h study. Mice in the non-ventilated control group were allowed to spontaneously breathe. […] The pellets were then resuspended in 500 μl of PBS and the cell numbers present were determined using an automated cell counter. The BAL fluid was centrifuged again at 15,000× g at 4° C. for 15 min and the supernatant collected and stored at −80° C. until the protein concentration was measured. […]
Protein extracts were prepared using lysis buffer (50 mM Tris-HCl, pH 7.6, 0.5% Triton X-100, 20% glycerol) containing HALT™ protease inhibitor cocktail (Pierce Laboratories, Rockford, IL). […] Bands were quantified using LI-COR Image Station software. […]

Consider `CCCCCCCCCC(=O)O[C@@H]1[C@@H](C)[C@@]2(O)[C@@H](C=C(CO)C[C@@]3(O)C(=O)C(C)=C[C@@H]23)[C@@H]2C(C)(C)[C@]12OC(=O)CCCCCCCCC` [4αPDD, 4α-Phorbol-12,13 didecanoate], for which, in assay [1] (4αPDD), the “mitochondrial redistribution of eNOS” value is on record as “induces the mitochondrial redistribution of eNOS”. Further, the “eNOS phosphorylation at T495” value in assay [2] (4αPDD) is reported as “increase in eNOS phosphorylation at T495”. Also, the “TER (barrier integrity)” value in assay [3] (4αPDD 0-15 μM) is given as “dose-dependent decrease in TER”. Further, the “NOS derived superoxide generation (eNOS uncoupling)” value in assay [4] (4αPDD) is given as “increases in NOS derived superoxide generation”.
With HRKKRRQRRITRKKTFKEVA [d-peptide], in assay [5], the BALF cell number entry is given as “decreases in the cell number”, the BALF protein levels entry is listed as “decreases” and the “increase in pT495-eNOS induced by mechanical ventilation of the mouse lung” value was “attenuated the increase in pT495-eNOS induced by mechanical ventilation”. For the same compound, the “PMA-induced mitochondrial redistribution of eNOS” value in assay [1] (d-peptide and PMA) is “attenuated”. In addition, the “PMA-mediated increase in pT495-eNOS” value in assay [2] (d-peptide 1 μg/ml, PMA 100 nm, 2 h) was “attenuated the PMA-mediated increase in pT495-eNOS”. The “barrier disruption induced by 4αPDD (normalized TER)” value in assay [3] (d-peptide plus 4αPDD) is “reduced”. For the same compound, the “eNOS uncoupling (NOS-derived superoxide levels)” value in assay [4] (d-peptide and PMA) was “reduced eNOS uncoupling”.
